From patent US7015306B2 (BioSynthema, Inc., priority 1999, dated 2006)
*1 amine or outer side, *2 acyl side, *3 side chain or, on linkers, in order; H or OH if unused. Where a SMILES comes first, the peptide text is derived from it. [ ]: non-standard residue; d: D form. The star is where a group is joined. ξ: configuration not given here. Abu(1-amidino-4-piperidyl) = N=C(N)N1CCC(CC[C@H](N)C(=O)O)CC1; Ala(piperidin-4-yl) = O=C([C@H](CC1CCN([*:3])CC1)N[*:1])[*:2]; Gly(1-amidinopiperidin-4-yl) = N=C(N)N1CCC([C@H](N)C(=O)O)CC1; Ala(1-amidino-4-piperidyl) = N=C(N)N1CCC(C[C@H](N)C(=O)O)CC1; DTPA = O=C(O)CN(CCN(CC(=O)O)CC(=O)O)CCN(CC(=O)O)CC(=O)*; Phe(4-guanidino) = N=C(N)Nc1ccc(C[C@H](N)C(=O)O)cc1; ξGly(4-Pip(1-amidino)) = N=C(N)N1CCC(C(N)C(=O)O)CC1; X2 = NC[C@H]1CC[C@H](C[C@H](N[*:1])C(=O)[*:2])CC1; X1 = CC(C)C[C@@H](CN[C@@H](CC(C)C)C(N)=O)N*; X3 = CC[C@H](C)[C@@H](COC(=O)[*:2])N[*:1]; Chg = N[C@H](C(=O)O)C1CCCCC1; Tle = CC(C)(C)[C@H](N)C(=O)O; NHOH = ON*

What was measured:
[1] = In vitro urine stability assay (HPLC) of In-111 labeled peptide; type: in vitro ADME; conditions: for remaining at 4 h: rat, t = 4 h
Protocol: (§1) All reagents were purchased from Sigma unless otherwise noted. The peptide and ^111InCl3 in 0.05 N HCl were incubated in a sodium acetate/ascorbic acid buffer for 30 minutes at room temperature. The reaction was diluted with 5% ethanol/95% PBS before using in subsequent in vitro assays.
(§2) Human serum was purchased from Sigma (H 1388). The labeled peptide was incubated in either human serum or rat urine at 37EC for the specified amount of time. An aliquot was filtered through a 0.45 μm syringe filter prior to HPLC injection.

[2] = In vitro serum stability assay (HPLC) of In-111 labeled peptide; type: in vitro ADME, human; conditions: for remaining at 4 h: t = 4 h
Protocol: as §1, §2

[3] = 37EC, read-out: HPLC Evaluation of Urine Stability at 37EC, Urine, t = 4 h
[4] = human serum, 37EC, read-out: HPLC Evaluation of Serum Stability at 37EC, Serum, t = 4 h
[5] = Table 4, rat urine, read-out: Urine Stability, Urine (t = 4 h)
[6] = Table 4, human serum, read-out: Serum Stability, Serum (t = 4 h)

SMILES	% of peptide at 4 hours after incubation at 37EC, Urine ([1]; rat urine, 37EC, 4 hours) [%]	% of peptide at 4 hours after incubation at 37EC, Serum ([2]; human serum, 37EC, 4 hours) [%]	further results
CC[C@H](C)[C@H](NC(=O)[C@H](Cc1ccc(O)cc1)NC(=O)[C@@H]1CCCN1C(=O)[C@H](CCCN=C(N)N)NC(=O)[C@H](Cc1ccc(NC(=N)N)cc1)NC(=O)[C@@H]1CCCN1C(=O)[C@@H](CCCCN)NC(=O)CN(CCN(CCN(CC(=O)O)CC(=O)O)CC(=O)O)CC(=O)O)C(=O)N[C@@H](CC(C)C)C(=O)O [In-111-DTPA-DK-P-F(Gu)-R-P-Y-I-L, metal not drawn]	–	–	HPLC Evaluation of Urine Stability at 37EC, Urine, t = 0 ([1]; rat urine): 94.1%; remaining at 4 h [1, 3]: 1.5%; remaining at 4 h [2, 4]: 14.1%; HPLC Evaluation of Serum Stability at 37EC, Serum, t = 0 ([2]; human serum): 98.7%
CC(C)C[C@@H](CN[C@@H](CC(C)C)C(N)=O)NC(=O)[C@H](Cc1ccc(O)cc1)NC(=O)[C@@H]1CCCN1C(=O)[C@H](CCCNC(=N)N)NC(=O)[C@H](Cc1ccc(NC(=N)N)cc1)NC(=O)[C@@H]1CCCN1C(=O)[C@@H](CCCCN)NC(=O)CN(CCN(CCN(CC(=O)O)CC(=O)O)CC(=O)O)CC(=O)O [DTPA-DLys-Pro-(4-Gu)Phe-Arg-Pro-Tyr-Leu-(Ψ-CH2-NH)-Leu-OH] ({DTPA}-[dK]P[Phe(4-guanidino)]RPY-X1; C-terminus assumed)	95.7	76.2	–
CC(C)C[C@H](NC(=O)[C@@H](NC(=O)[C@H](Cc1ccc(O)cc1)NC(=O)[C@@H]1CCCN1C(=O)[C@H](CCCNC(=N)N)NC(=O)C(NC(=O)[C@@H]1CCCN1C(=O)[C@@H](CCCCN)NC(=O)CN(CCN(CCN(CC(=O)O)CC(=O)O)CC(=O)O)CC(=O)O)C1CCN(C(=N)N)CC1)C(C)(C)C)C(=O)NO (stereo partly drawn) [DTPA-DLys-Pro-Gly(PipAm)-Arg-Pro-Tyr-tBuGly-Leu-HA] ({DTPA}-[dK]P[ξGly(4-Pip(1-amidino))]RPY[Tle]L-{NHOH})	60.2	89.2	–
CC(C)C[C@H](NC(=O)[C@@H](NC(=O)[C@H](Cc1ccc(O)cc1)NC(=O)[C@@H]1CCCN1C(=O)[C@H](CCCN=C(N)N)NC(=O)[C@H](Cc1ccc(NC(=N)N)cc1)NC(=O)[C@@H]1CCCN1C(=O)[C@@H](CCCCN)NC(=O)CN(CCN(CCN(CC(=O)O)CC(=O)O)CC(=O)O)CC(=O)O)C(C)(C)C)C(=O)O [In-111-DTPA-DK-P-F(Gu)-R-P-Y-tBuG-L, metal not drawn] ({DTPA}-[dK]P[Phe(4-guanidino)]RPY[Tle]L-OH)	–	–	remaining at 4 h [1, 5]: 51.1%; remaining at 4 h [2, 6]: 72%
CC(C)C[C@H](NC(=O)[C@@H](NC(=O)[C@H](Cc1ccc(O)cc1)NC(=O)[C@@H]1CCCN1C(=O)[C@H](CCCNC(=N)N)NC(=O)[C@H](CC1CCN(C(=N)N)CC1)NC(=O)[C@@H]1CCCN1C(=O)[C@@H](CCCCN)NC(=O)CN(CCN(CCN(CC(=O)O)CC(=O)O)CC(=O)O)CC(=O)O)C(C)(C)C)C(=O)O [DTPA-DLys-Pro-Ala(PipAm)-Arg-Pro-Tyr-tBuGly-Leu-OH] ({DTPA}-[dK]P[Ala(1-amidino-4-piperidyl)]RPY[Tle]L-OH)	89.8	96.5	–
CC(C)C[C@H](NC(=O)[C@@H](NC(=O)[C@@H](Cc1ccc(O)cc1)NC(=O)[C@@H]1CCCN1C(=O)[C@H](CCCNC(=N)N)NC(=O)C(NC(=O)[C@@H]1CCCN1C(=O)[C@@H](CCCCN)NC(=O)CN(CCN(CCN(CC(=O)O)CC(=O)O)CC(=O)O)CC(=O)O)C1CCN(C(=N)N)CC1)C(C)(C)C)C(=O)O (stereo partly drawn) [DTPA-DLys-Pro-Gly(PipAm)-Arg-Pro-DTyr-tBuGly-Leu-OH]	98.3	98.9	–
CC[C@H](C)[C@@H](COC(=O)N[C@@H](CC(C)C)C(=O)O)NC(=O)[C@H](Cc1ccc(O)cc1)NC(=O)[C@@H]1CCCN1C(=O)[C@H](CCCNC(=N)N)NC(=O)[C@@H](NC(=O)[C@@H]1CCCN1C(=O)[C@@H](CCCCN)NC(=O)CN(CCN(CCN(CC(=O)O)CC(=O)O)CC(=O)O)CC(=O)O)C1CCN(C(=N)N)CC1 [DTPA-DLys-Pro-Gly(PipAm)-Arg-Pro-Tyr-Ile^R-OCO-Leu-OH] ({DTPA}-[dK]P[Gly(1-amidinopiperidin-4-yl)]RPY[X3]L-OH)	89.8	94.6	–
CC[C@H](C)[C@H](NC(=O)[C@H](Cc1ccc(O)cc1)NC(=O)[C@@H]1CCCN1C(=O)C(Cc1ccc(NC(=N)N)cc1)NC(=O)[C@H](CCCNC(=N)N)NC(=O)[C@@H]1CCCN1C(=O)[C@@H](CCCCN)NC(=O)CN(CCN(CCN(CC(=O)O)CC(=O)O)CC(=O)O)CC(=O)O)C(=O)N[C@@H](CC(C)C)C(=O)O (single isomer, unassigned) [In-111-DTPA-DK-P-R-F(Gu)-P-Y-I-L, metal not drawn]	–	–	HPLC Evaluation of Urine Stability at 37EC, Urine, t = 0 ([1]; rat urine): 90.4%; remaining at 4 h [1, 3]: 0%; remaining at 4 h [2, 4]: 16.3%; HPLC Evaluation of Serum Stability at 37EC, Serum, t = 0 ([2]; human serum): 94%
CC(C)C[C@H](NC(=O)[C@@H](NC(=O)[C@H](Cc1ccc(O)cc1)NC(=O)[C@@H]1CCCN1C(=O)[C@H](CCCNC(=N)N)NC(=O)C(NC(=O)[C@@H]1CCCN1C(=O)[C@@H](CCCCN)NC(=O)CN(CCN(CCN(CC(=O)O)CC(=O)O)CC(=O)O)CC(=O)O)C1CCN(C(=N)N)CC1)C1CCCCC1)C(=O)O (stereo partly drawn) [DTPA-DLys-Pro-Gly(PipAm)-Arg-Pro-Tyr-Chg-Leu-OH] ({DTPA}-[dK]P[ξGly(4-Pip(1-amidino))]RPY[Chg]L-OH)	7.0	75.2	–
CC[C@H](C)[C@H](NC(=O)[C@H](Cc1ccc(O)cc1)NC(=O)[C@@H]1CCCN1C(=O)[C@H](CCCNC(=N)N)NC(=O)[C@H](CCCNC(=N)N)NC(=O)CN(CCN(CCN(CC(=O)O)CC(=O)O)CC(=O)O)CC(=O)O)C(=O)N[C@@H](CC(C)C)C(=O)O [DTPA-Arg-Arg-Pro-Tyr-Ile-Leu-OH, reference compound]	13.0	1.6	% of compound present at 4 hours in urine ([1]; rat urine, 37EC, 4 hours): 13.0%; % of compound present at 4 hours in serum ([2]; human serum, 37EC, 4 hours): 1.6%
CC[C@H](C)[C@H](NC(=O)[C@H](Cc1ccc(O)cc1)NC(=O)[C@@H]1CCCN1C(=O)C(CCc1ccnc(N)n1)NC(=O)[C@H](CCCNC(=N)N)NC(=O)[C@@H]1CCCN1C(=O)[C@@H](CCCCN)NC(=O)CN(CCN(CCN(CC(=O)O)CC(=O)O)CC(=O)O)CC(=O)O)C(=O)N[C@@H](CC(C)C)C(=O)O (single isomer, unassigned) [In-111-DTPA-DK-P-R-Aba(Apy)-P-Y-I-L, metal not drawn]	–	–	HPLC Evaluation of Urine Stability at 37EC, Urine, t = 0 ([1]; rat urine): 96.7%; remaining at 4 h [1, 3]: 4.7%; remaining at 4 h [2, 4]: 15.7%; HPLC Evaluation of Serum Stability at 37EC, Serum, t = 0 ([2]; human serum): 98.1%
CC(C)C[C@H](NC(=O)[C@@H](NC(=O)[C@H](Cc1ccc(O)cc1)NC(=O)[C@@H]1CCCN1C(=O)[C@H](CCCNC(=N)N)NC(=O)[C@@H](NC(=O)[C@@H]1CCCN1C(=O)[C@H](C[C@H]1CC[C@H](CN)CC1)NC(=O)CN(CCN(CCN(CC(=O)O)CC(=O)O)CC(=O)O)CC(=O)O)C1CCN(C(=N)N)CC1)C(C)(C)C)C(=O)O [Compound XII, DTPA-trans-Cha(4-CH2NH2)-Pro-Gly(PipAm)-Arg-Pro-Tyr-tBuGly-Leu-OH] ({DTPA}-[X2]P[Gly(1-amidinopiperidin-4-yl)]RPY[Tle]L-OH)	89.4	94.8	–
CC(C)C[C@@H](CN[C@@H](CC(C)C)C(N)=O)NC(=O)[C@H](Cc1ccc(O)cc1)NC(=O)[C@@H]1CCCN1C(=O)[C@H](CCCNC(=N)N)NC(=O)[C@H](Cc1ccc(NC(=N)N)cc1)NC(=O)[C@@H]1CCCN1C(=O)[C@@H](CCCCN)NC(=O)CN(CCN(CCN(CC(=O)O)CC(=O)O)CC(=O)O)CC(=O)O [In-111-DTPA-DK-P-F(Gu)-R-P-Y-L(Ψ-CH2NH)-L-NH2, metal not drawn] ({DTPA}-[dK]P[Phe(4-guanidino)]RPY-X1)	–	–	remaining at 4 h [1, 5]: 95.7%; remaining at 4 h [2, 6]: 76.2%
CC[C@H](C)[C@H](NC(=O)[C@H](Cc1ccc(O)cc1)NC(=O)[C@@H]1CCCN1C(=O)[C@H](CCCNC(=N)N)NC(=O)C(NC(=O)[C@@H]1CCCN1C(=O)[C@@H](CCCCN)NC(=O)CN(CCN(CCN(CC(=O)O)CC(=O)O)CC(=O)O)CC(=O)O)C1CCN(C(=N)N)CC1)C(=O)N[C@@H](CC(C)C)C(=O)O (single isomer, unassigned) [In-111-DTPA-DK-P-G(PipAm)-R-P-Y-I-L, metal not drawn]	–	–	remaining at 4 h [1, 3]: 16.6%; remaining at 4 h [2, 4]: 19.5%
CC(C)C[C@H](NC(=O)[C@@H](NC(=O)[C@H](Cc1ccc(O)cc1)NC(=O)[C@@H]1CCCN1C(=O)[C@H](CCCNC(=N)N)NC(=O)[C@@H](NC(=O)[C@@H]1CCCN1C(=O)[C@H](CC1CCNCC1)NC(=O)CN(CCN(CCN(CC(=O)O)CC(=O)O)CC(=O)O)CC(=O)O)C1CCN(C(=N)N)CC1)C(C)(C)C)C(=O)O [DTPA-(Pip)Ala-Pro-Gly(PipAm)-Arg-Pro-Tyr-tBuGly-Leu-OH] ({DTPA}-[Ala(piperidin-4-yl)]P[Gly(1-amidinopiperidin-4-yl)]RPY[Tle]L-OH)	98.3	98.9	–
CC(C)C[C@H](NC(=O)[C@@H](NC(=O)[C@H](Cc1ccc(O)cc1)NC(=O)[C@@H]1CCCN1C(=O)[C@H](CCCNC(=N)N)NC(=O)[C@H](CCC1CCN(C(=N)N)CC1)NC(=O)[C@@H]1CCCN1C(=O)[C@@H](CCCCN)NC(=O)CN(CCN(CCN(CC(=O)O)CC(=O)O)CC(=O)O)CC(=O)O)C(C)(C)C)C(=O)O [DTPA-DLys-Pro-homoAla(PipAm)-Arg-Pro-Tyr-tBuGly-Leu-OH] ({DTPA}-[dK]P[Abu(1-amidino-4-piperidyl)]RPY[Tle]L-OH)	71.3	84.3	–
